Tests used:
HepG2 cells = experiment: Cell growth under high-density conditions (SRB assay), delayed cell death (DCD); type: cell-based, human; details: Homo sapiens, high density HepG2 cultures
[1] = biological target: T1, niacinamide phosphoribosyltransferase (NAPRT, EC 2.4.2.12) (Homo sapiens, UniProt P43490); experiment: Niacinamide phosphoribosyltransferase (NAPRT) assay, protamine-treated cytoplasmic fraction of K-562 cells; type: biochemical; details: for NAM: niacinamide mononucleotide formed, controls 79.1 and 71.8; for NA: niacinamide remaining, controls 389.7 and 397.0; for NA [%] / NAM [%]: portion of total radioactivity
T1 construct: protamine-treated cytoplasmic fraction of K-562 cells as the enzyme source; endogenous in cells; host or cells: K-562 (ATCC CCL 243), freeze-thaw lysate, 23,000 x g supernatant treated with protamine sulfate
Protocol: The effect of the compounds on the enzyme niacinamide phosphoribosyltransferase (NAPRT, EC 2.4.2.12) was investigated using for example protamine-treated cytoplasmic fraction of K-562 cells as the enzyme source according to the NAPRT assay described in the experimental part below. The investigated compounds were used in concentrations of 10 μM, except for K22387 and K22133 where the concentration was 1 μM.
The assay is based on the amount of radioactive incorporation from ^14C-labelled niacinamide into niacinamide mononucleotide (NAM). NAM is subsequently separated from niacinamide (NA) by thin-layer chromatography and its quantity is determined by autoradiography.
Niacinamide Phosphoribosyltransferase (NAPRT) Assay
The human cell line K-562 (chronic myelogenous leukaemia) is obtained from the American Type Culture Collection (ATCC CCL 243), Rockville, Md., USA. The K-562 cells are cultured in RPMI (Sigma, Deisenhofen, Germany, Product No.: R6504) containing 10% foetal calf serum (PAN Systems GmbH, Aidenbach, Germany), 2.2 g/l NaHCO3 (Merck, Darmstadt, Germany), 50,000 IU/l penicillin and 50 mg/l streptomycin (Sigma).
The K-562 cells are grown in RPMI supplemented with 10% FCS at 37° C. and 100% humidity in a 5% CO2 atmosphere up to a density of 2×10^6 cells per ml. Under these conditions, the cells grow logarithmically with a generation time of 24 hours. The cells are harvested by aspiration and centrifugation (250×g, 10 min, RT). Thereafter, the cells are washed at least 3 times by repeated centrifugation (250×g, 10 min, RT) and resuspension in CMF-PBS. After counting the cell suspension in a haematocytometer, the cells are spun into a tight pellet (390×g, […], RT) and the supernatant is carefully drawn off with a Pasteur pipette. The cells are then vortexed into suspension in sufficient lysis buffer to give a final concentration of 3×10^7 cells per ml. The suspension is frozen at −80° C. for at least one day and thawed slowly at room temperature to break up the cells. The breakage is usually greater than 95%, as determined by trypan blue exclusion. Following centrifugation at 23,000×g for 90 min at 0° C., the clarified supernatant is recovered on ice and 70 μl of 1% protamine sulfate is added per ml of supernatant. After 15 min on ice, the cloudy suspension is centrifuged a further 30 min at 23,000×g and 0° C. The final supernatant is stored in small aliquots at […] This supernatant contains about 950 to 1440 μg protein per ml. 120 to 140 μg protein per sample is used in the NAPRT assay (total assay volume: 0.5 ml).
The niacinamide phosphoribosyltransferase activity is determined in a reaction solution of 0.5 ml consisting of 5 mM MgCl2, 2 mM ATP, 0.5 mM PRPP, and [^14C]niacinamide (10^−5 M to 10^−7 M) in 50 mM Tris buffer pH 8.8 (final concentrations in the assay). The reaction is started by adding 100 to 120 μl cell extract. After incubation for 1 hour at 37° C., the enzyme reaction is stopped by adding cold niacinamide (50 μl of a 100 mM niacinamide solution per 0.5 ml reaction mixture) and by heating on a heating block (2 min, 105° C.). The precipitate is removed by centrifugation (2,500×g, 10 min, 4° C.) and the supernatant is collected into a […] polypropylene vial with screw cap and stored at −20° C. until further analysis. A 10 μl aliquot is taken from the supernatant to determine the total amount of radioactivity.
The ^14C-labelled components of the reaction mixture are separated and identified using thin-layer chromatography (TLC). 5 to 7.5 μl of each sample is transferred to a cellulose TLC foil using an automated sample applicator. The cellulose foil is developed using 1 M NH4 acetate:ethanol (3:7) as solvent. The chromatogram is run with added non-radioactive standards of NAD, NADP, NAM and niacinamide, and the spots were identified by UV absorption (RF values see Table 7). For autoradiography, the chromatogram is exposed to an imaging plate BAS-IIIs in a hypercassette for at least two days. […]

Hep G2 cells = experiment: Nicotinamide Reversibility Assay / cell growth inhibition of Hep G2 cells (SRB, six days); type: cell-based, human; details: Homo sapiens, HepG2, 144 h; Hep G2; six days of compound incubation; SRB; read-out: Cell growth inhibition IC50-values [μM] Hep G2
Protocol: Nicotinamide Reversibility Assay
Hep G2 cells derived from a human liver carcinoma were plated at a density of 20,000 cells/ml in 12-well plastic dishes. Cultivation occurred in Richters IMEM-ZO nutrient medium with 5% fetal calf serum (FCS) in a tissue culture incubator with a gas mixture of 5% CO2 and 95% air at a temperature of 37° C. One day after plating, the culture medium was aspirated from the cells and replaced by fresh medium which contained the respective concentrations of the test compounds and where applicable of the nicotinamide. For the individual concentrations and the controls without test compounds, three-fold batches were done for each. Three days after the beginning of treatment, the medium was again renewed with the test compounds and where applicable the nicotinamide. After six days of compound incubation, the test was ended and the protein amount in the individual wells was determined with the sulforhodamin-B-method (according. to P. Skehan et al.: New Colorimetric Cytotoxicity Assay for Anticancer-Drug Screening. J. Natl. Cancer Inst. 82: 1107-1112, 1990). The IC50-values were taken from the dose-response curves and given as a comparative measurement for the activity of the test compounds.

[2] = minimum concentration which, despite initial growth, induced cell death below the number of initially seeded cells, Table 2
[3] = compound 10 μM, controls 16.88 and 15.32
[4] = compound 10 μM, controls 83.12 and 84.68

T1 sequence (P43490 whole entry): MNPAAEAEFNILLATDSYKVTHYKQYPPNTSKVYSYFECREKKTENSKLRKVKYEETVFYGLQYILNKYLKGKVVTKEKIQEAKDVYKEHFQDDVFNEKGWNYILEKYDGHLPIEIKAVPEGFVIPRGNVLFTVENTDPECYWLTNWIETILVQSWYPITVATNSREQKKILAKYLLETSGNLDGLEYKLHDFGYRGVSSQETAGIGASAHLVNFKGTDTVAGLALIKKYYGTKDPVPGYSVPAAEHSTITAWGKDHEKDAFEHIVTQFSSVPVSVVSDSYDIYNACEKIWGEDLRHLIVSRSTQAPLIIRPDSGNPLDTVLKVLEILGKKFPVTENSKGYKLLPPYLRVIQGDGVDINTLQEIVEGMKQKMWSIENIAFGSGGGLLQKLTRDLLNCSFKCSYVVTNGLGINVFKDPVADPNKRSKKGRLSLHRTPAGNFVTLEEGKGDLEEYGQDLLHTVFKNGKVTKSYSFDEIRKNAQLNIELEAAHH

## O=C(/C=C/c1cccnc1)NCCCCCCCC(c1ccccc1)c1ccccc1 [Compound K22133, N-(8,8-diphenyl-octyl)-3-pyrid-3-yl-acrylamide]
HepG2 cells; Table 5
  minimal effective concentration: 0.03 µM
HepG2 cells; [2]
  minimal effective concentration: 0.03 µM
[1]; compound 1 μM
  NAM: 0.0 pmol/h
  NA: 468.8 pmol/h
  NA [%]: 100.00%
  NAM [%]: 0.00%
Hep G2 cells
  IC50: 0.02 µM

## O=C(NCCCCCCNC(=O)NCc1cccnc1)NCCC(c1ccccc1)c1ccccc1 [Compound K22158, 1-(3,3-diphenylpropyl)-3-[6-(3-pyridine-3-yl-methylureido)-hexyl]-urea]
HepG2 cells; Table 5
  minimal effective concentration: 1 µM
HepG2 cells; [2]
  minimal effective concentration: 1 µM
[1]; compound 10 μM
  NAM: 0.0 pmol/h
  NA: 468.8 pmol/h
[1]; [3]
  NAM [%]: 0.00%
[1]; [4]
  NA [%]: 100.00%
Hep G2 cells
  IC50: 0.1 µM

## O=C(CCc1cccnc1)NCCCCC1CCN(CCCCC2CCN(C(c3ccccc3)c3ccccc3)CC2)CC1 [Compound K22316, N-(4-(1-[4-{1-benzhydryl-piperidine-4-yl)-butyl]-piperidine-4-yl}-butyl)-3-pyridine-3-yl-propanoic acid amide]
HepG2 cells; Table 5
  minimal effective concentration: 1 µM
HepG2 cells; [2]
  minimal effective concentration: 1 µM
[1]; compound 10 μM
  NAM: 0.0 pmol/h
  NA: 468.8 pmol/h
[1]; [3]
  NAM [%]: 0.00%
[1]; [4]
  NA [%]: 100.00%
Hep G2 cells
  IC50: 0.9 µM

From patent publication US20020160968A1, “Inhibitors of cellular niacinamide mononucleotide formation and their use in cancer therapy” (Klinge Pharma GmbH, priority 1999, published 2002)
